This is an account of results in publication PMC5675407, “Sugar analog synthesis by in vitro biocatalytic cascade: A comparison of alternative enzyme complements for dihydroxyacetone phosphate production as a precursor to rare chiral sugar synthesis” (PLoS ONE, 2017).

This assay addresses T1, FruASc (Staphylococcus carnosus, UniProt Q07159).
T1 construct: gene fda; recombinant from pETScFruA, E. coli
Put plainly: LC-MS of aldol product in enzyme cascade. Type of assay: biochemical. The conditions noted are these: DHAP made in situ; acetaldehyde or glyceraldehyde-3-phosphate 10 mM, pH 7.9, 22 °C.

T1 sequence (Q07159 2-296): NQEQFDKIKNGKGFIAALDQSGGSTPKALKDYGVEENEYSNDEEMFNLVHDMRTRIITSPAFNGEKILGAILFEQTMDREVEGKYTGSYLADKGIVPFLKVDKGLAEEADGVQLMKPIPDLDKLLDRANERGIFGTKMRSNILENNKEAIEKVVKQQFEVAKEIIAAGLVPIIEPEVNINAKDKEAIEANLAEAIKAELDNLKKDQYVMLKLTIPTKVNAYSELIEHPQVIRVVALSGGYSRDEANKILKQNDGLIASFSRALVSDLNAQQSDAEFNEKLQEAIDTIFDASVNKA

As to `O=C(CO)COP(=O)(O)O` [DHAP], the “LC-MS of aldol product in enzyme cascade” value is recorded as “as DHAP was consumed by the aldolase reaction, greater conversion to DHAP occurred”.
